Test results from patent US20140287931A1, “METHODS AND COMPOSITIONS FOR PREDICTING RESISTANCE TO ANTICANCER TREATMENT” (Stichting het Nederlands Kanker Instituut - Antoni van …, priority 2011, published 2014).
Entries after “also recorded” stand apart in the source; their conditions may differ. Read-outs that look alike come from different tables or passages of the source.

Columns and labels:
[1] = tested on: human NSCLC cell lines that harbor EML4-ALK translocations; settings: cited from earlier work
H3122 cells = test: Colony formation assay in H3122 cells with or without shRNA knockdown; assay type: cell-based, human; settings: for sensitivity to ALK inhibitors after restoration of Med12: H3122 MED12 knockdown cells (shMED12_TRC#3, #5) plus mouse Med12 cDNA; for sensitivity to ALK inhibitors after restoration of Med12 / sensitivity to ALK inhibitors after restoration of SMARCE1: 300 nM Crizotinib or 2.5 nM NVP-TAE684; for sensitivity to ALK inhibitors after restoration of SMARCE1: H3122 SMARCE1 knockdown cells plus SMARCE1-ND; for resistance to ALK inhibitors on suppression of ARID1A or SMARCE1, colony formation: H3122 expressing independent shARID1A or shSMARCE1 vectors; for resistance to ALK inhibitors on suppression of ARID1A or SMARCE1, colony formation / resistance to ALK inhibitors on suppression of MED12, colony formation / resistance to ALK inhibitors, colony formation: 300 nM Crizotinib or 2.5 nM NVP-TAE684, 4 weeks; for resistance to ALK inhibitors on suppression of MED12, colony formation: H3122 expressing independent shMED12 vectors (pRS #3; pLKO TRC#2, #3, #5); for resistance to ALK inhibitors, colony formation: H3122 expressing library shMED12#1, shMED12#2, shARID1A or shSMARCE1
phospho-AKT = test: Western blotting of phospho-AKT in H3122 cells; assay type: cell-based, human; settings: H3122 shSMARCE1 cells versus controls; 20 nM NVP-TAE684, 24 hours
Experimental: (B) SMARCE1^KD cells have elevated phospho-AKT levels in EML4-ALK cells. H3122 cells expressing controls (pRS or shGFP) or shSMARCE1 vectors were gown in the absence or presence of 20 nM NVP-TAE684 for 24 hours and the cell lysates were harvested for western blotting analysis. (C) MED12^KD cells have elevated phospho-AKT levels in EGFR mutant cells. PC9 cells expressing controls (pRS or shGFP) or shSMARCE1 vectors were gown in the absence or presence of 25 nM Gefitinib for 8 hours and the cell lysates were harvested for western blotting analysis.
Given that loss of MED2 or SMARCE1 causes resistance to multiple tyrosine kinase inhibitors in NSCLC cell lines, Applicants asked whether the activity of downstream components of receptor tyrosine kinase signaling is altered. AKT is a key downstream component and its phosphorylation status positively correlates with its activation that can be determined by specific antibodies against the phosphorylated form of AKT. 1-13122 cells were infected with two independent controls shRNA vectors or shRNAs targeting either MED12 or SMARCE1 and confirmed loss of MED112 or SMARCE1 protein by immunoblotting (FIGS. 15A and B). The cells were also treated of left untreated with the ALK inhibitor NVP-TAE684, to address the activation status of AKT in the presence or absence of the inhibitor. […]

[2] = tested on: BT474 breast cancer cells; test: Colony formation assay in BT474 cells with ARID1A knockdown; assay type: cell-based, human; settings: 25 nM AZD8055 or 2 ug/ml trastuzumab, 4 weeks
Source text: The cells were fixed, stained and photographed after 2 weeks (untreated) or 4 weeks (inhibitor treatment).

T47D breast cancer cells = test: Colony formation assay in T47D cells with ARID1A knockdown; assay type: cell-based; settings: 10 and 20 nM AZD8055, 4 weeks
Experimental: (§1) (B) Validation of independent shRNAs (in pLKO vector) targeting ARID1A in T47D breast cancer cells. TIhe functional phenotypes of non-overlapping shARID1A vectors are indicated by the colony formation assay in 10 and 20 nM small molecule mTOR inhibitor AZD8055. The cells were fixed, stained and photographed after 2 weeks (untreated) or 4 weeks (inhibitor treatment). Ectopic expression of a mutant of cyclin DI (pBpDITA) served as a control in the experiment. (C) Validation of independent shRNAs (in pLKO vector) targeting ARID1A in MCF7 breast cancer cells. The functional phenotypes of non-overlapping shARIDJA vectors are indicated by the colony formation assay in 20 and 40 nM small molecule mTOR inhibitor AZD8055. The cells were fixed, stained and photographed after 2 weeks (untreated) or 4 weeks (inhibitor treatment). (D). Quantification of ARID1A mRNA levels by QRT-PCR after knockdown of ARID1A in MCF7 breast cancer cells.

MCF7 breast cancer cells = test: Colony formation assay in MCF7 cells with ARID1A knockdown; assay type: cell-based; settings: 20 and 40 nM AZD8055, 4 weeks
Experimental: as §1

[3] = tested on: PI3K pathway members (p473-AKT, p235/236-S6RP); test: Immunoblot of PI3K pathway members in BT474 cells; assay type: cell-based, human; settings: BT474 expressing three independent shARID1A vectors versus shctrl; increasing amounts of AZD8055, three hours
Experimental: BT474 cells stably expressing either shctrl, shTSC2 or three independent shARID1A vectors were exposed to increasing amounts of the mTOR inhibitor AZD8055. After three hours, cell lysates were prepared and PI3K pathway members were immunoblotted.

[4] = tested on: PC9 cells (EGFRdelE746-A750); assay type: cell-based, human
Experimental: (§2) Single cell suspensions of the lung cancer cell lines were seeded into 6-well plates (2×10^4 cells/well) and cultured both in the absence and presence of the ALK inhibitors. At the endpoints of colony formation assays, cells were fixed with formaldehyde, stained with crystal violet (0,1% w/v) and photographed. All relevant assays were performed independently at least three times. All knockdown and overexpression experiments were done by retroviral or lentiviral infections.
(§3) Subclones of each NSCLC cell line expressing the murine ecotropic receptor were generated and used for all experiments shown. Retroviral infections were performed using Phoenix cells as producers of retroviral supernatants using 2.5-3 μg of plasmid DNA as described (http://www(dot)stanford(dot)edu/group/nolan/retroviralsystems/phx(dot)html). […] For transfections of Phoenix cells, Applicants seeded 1.0×10^6 cells in a 6-well dish in the morning and transfected the cells 6-8 hours later. Cells were refreshed the next day in the morning and afternoon. Viral supernatant was harvested the day thereafter for infections of the target cells. […] Infected NSCLC cells were selected for successful retroviral integration using 2 μg/ml of puromycin.

DAB2IP mRNA = test: DAB2IP knockdown by qRT-PCR in PC9 cells; assay type: cell-based, human
Experimental: QRT-PCR assays were carried out to measure mRNA levels of genes using 7500 Fast Real-Time PCR System (Applied Biosystems). Total RNA was isolated using Trizol (Invitrogen) and 1 μg of total RNA was used for cDNA synthesis using superscrpipt 11 reverse transcriptase (Invitrogen) and random hexamer primers (Invitrogen). Relative mRNA levels of each gene shown were normalized to the expression of the house keeping gene GAPDH. The sequences of the primers for assays using SYBR® Green master mix (Roche) are listed below (h, human: m, mouse).

[5] = tested on: EBC-1 (MET-amplified) cells; settings: 200 nM Crizotinib; for sensitivity to MET inhibitor after restoration of SMARCE1: EBC-1 SMARCE1-knockdown cells plus SMARCE1-ND
Experimental: as §2, §3

[6] = tested on: H1993 (MET-amplified) cells; settings: 200 nM Crizotinib; for sensitivity to MET inhibitor after restoration of SMARCE1: H1993 SMARCE1-knockdown cells plus SMARCE1-ND; for resistance to MET inhibitor on suppression of ARID1A: H1993 expressing shARID1A #1 and #2, 4 weeks
[7] = tested on: SKBR3 breast cancer cells; test: shRNA bar code screen in SKBR3 breast cancer cells; assay type: cell-based
[8] = tested on: HCC 1954 breast cancer cells; test: shRNA bar code screen in HCC 1954 breast cancer cells; assay type: cell-based

COc1cc(N2CCC(N3CCN(C)CC3)CC2)ccc1Nc1ncc(Cl)c(Nc2ccccc2S(=O)(=O)C(C)C)n1 [NVP-TAE684]
inhibition of EML4-ALK NSCLC cell lines [1]: potently inhibit | sensitivity to ALK inhibitors after restoration of Med12 (H3122 cells): re-sensitizes | sensitivity to ALK inhibitors after restoration of SMARCE1 (H3122 cells): re-sensitizes | resistance to ALK inhibitors on suppression of ARID1A or SMARCE1, colony formation (H3122 cells): confers drug resistance | resistance to ALK inhibitors on suppression of MED12, colony formation (H3122 cells): confers drug resistance | resistance to ALK inhibitors, colony formation (H3122 cells): confer resistance | phosphorylated AKT levels in the presence of inhibitor (phospho-AKT): maintained higher levels

COc1ccc(-c2ccc3c(N4CCOC[C@@H]4C)nc(N4CCOC[C@@H]4C)nc3n2)cc1CO [AZD8055]
resistance on knockdown of ARID1A, colony formation [2]: conferred resistance | resistance on suppression of ARID1A, colony formation (T47D breast cancer cells): conferred resistance; also recorded: confers resistance | resistance on suppression of ARID1A, colony formation (MCF7 breast cancer cells): conferred resistance; also recorded: confers resistance | phosphorylated AKT (p473-AKT) levels in the presence of inhibitor [3]: maintained higher levels | phosphorylated S6RP (p235/236-S6RP) levels in the presence of inhibitor [3]: maintained higher levels

shDAB2IP#2: lentiviral pLKO shRNA vector from the TRC library targeting DAB2IP, sequence GACTCCAAACAGAAGATCATT (pLKO lentiviral vector)
toxicity of shRNA vector [4]: exhibited toxicity

shDAB2IP#5: lentiviral pLKO shRNA vector from the TRC library targeting DAB2IP, sequence GCACATCACTAACCACTACCT (pLKO lentiviral vector)
knockdown of DAB2IP (DAB2IP mRNA): failed to induce a knockdown

C[C@@H](Oc1cc(-c2cnn(C3CCNCC3)c2)cnc1N)c1c(Cl)ccc(F)c1Cl [crizotinib]
sensitivity to MET inhibitor after restoration of SMARCE1 [5]: restored the sensitivity | sensitivity to MET inhibitor after restoration of SMARCE1 ([5]; listed as Crizotinib): re-sensitizes | resistance to MET inhibitor on suppression of SMARCE1 ([5]; EBC-1 expressing shSMARCE1#1 and #2): conferred resistance | sensitivity to MET inhibitor after restoration of SMARCE1 [6]: restored the sensitivity | sensitivity to MET inhibitor after restoration of SMARCE1 ([6]; listed as Crizotinib): re-sensitizes | resistance to MET inhibitor on suppression of ARID1A [6]: conferred resistance | resistance to MET inhibitor on suppression of ARID1A ([6]; listed as Crizotinib): are resistance | resistance to MET inhibitor on suppression of SMARCE1 ([6]; H1993 expressing shSMARCE1#1 and #2): conferred resistance | sensitivity to ALK inhibitors after restoration of Med12 (H3122 cells): re-sensitizes | sensitivity to ALK inhibitors after restoration of SMARCE1 (H3122 cells): re-sensitizes | resistance to ALK inhibitors on suppression of ARID1A or SMARCE1, colony formation (H3122 cells): confers drug resistance | resistance to ALK inhibitors on suppression of MED12, colony formation (H3122 cells): confers drug resistance | resistance to ALK inhibitors, colony formation (H3122 cells): confer resistance

Oc1cccc(-c2nc(N3CCOCC3)c3oc4ncccc4c3n2)c1 [PI-103]
resistance on knockdown of ARID1A (SMARCF1) [7]: conferred resistance

Cn1c(=O)n(-c2ccc(C(C)(C)C#N)cc2)c2c3cc(-c4cnc5ccccc5c4)ccc3ncc21 [NVPBEZ235]
resistance on knockdown of ARID1A [8]: conferred resistance
